Entries after “also recorded” stand apart in the source; their conditions may differ.
Key:
zebrafish embryos [1] = test: Embryo analysis at 72 hpf (blood circulation and ISVs development); assay type: in vivo; settings: 72 hpf
Procedure: Embryos from the Flk1:copGFP line were treated with the indicated compounds at 22–23 hpf in 500 µl of E3 in p24 well plates (5 embryos per well). After 48 hours of treatment embryos were anesthetized with 10 µl Tricaine (final concentration 0.02%) and analyzed for the presence of blood circulation and ISVs development using a Leica M205 FA stereoscope equipped with a Hamamatsu C10600 camera.

zebrafish embryos [2] = test: Automated angiogenesis assay (ISV formation), Flk1:copGFP embryos treated at 22-26 hpf, read at 48 hpf; assay type: in vivo; settings: for Angiog. inhibition: presence or absence of an anti-angiogenic effect, 0.01-100 µM; for Anti-angiogenic phenotype (ISVs / DLAV): treated at 24 hpf, checked at 48 hpf
Excerpt: In the angiogenesis assay, the fluorescent images taken were processed using AxioVision 4.6.3 and a macro was developed to quantify an indirect measure of the area of the ISVs. […] However, we usually include a manual counting to offer a more detailed measurement of effect.
In the automatic analysis of angiogenesis, it is first necessary to perform a sequence of automated filtering functions on the image to extract information, define the region of interest (ROI), that in this case is the part of the tail containing the ISVs, and allow the measurement of the embryo length. Recovering a previous image, new filtering functions are applied to the ROI. A gradient image containing the ISVs, the DLAV (Dorsal Longitudinal Anastomotic Vessel), the PCV and the DA is created. Next, fluorescent areas that should not be quantified are discarded. Finally, only the areas comprised between the ISVs, the DLAV and the PCV or the DA are measured (Figure 4). In that way, when the vessels are incomplete or the DLAV is not present, an enclosed area is not present and therefore not measured.
The means obtained from the treated embryos were compared with the control mean. When statistically significant differences were detected a deeper analysis was done manually. In this case the parameters quantified were:
• The total number of ISVs present in the trunk of the embryos (from where the largest bulge of the yolk ends to the end of the tail). • Number of complete ISVs (reached the dorsal part of the embryo and formed the DLAV).
A curve of six concentrations (0.01, 0.1, 1, 10, 30 and 100 µM) was performed for all of them. […] IC50 was calculated when a clear dose-dependent anti-angiogenesis effect was detected. Otherwise, the minimum dose at which the inhibition of angiogenesis was observed is shown (Table 4).
At this time, chorions were removed with protease from Streptomyces griseus (Sigma-Aldrich) (1.5 mg/ml for 6 minutes) and the embryos were sorted and dispensed 1 per well in a 96 well assay plate. Each experimental condition was tested in a row with ten embryos. Embryos were dispensed in an average final volume of 90 µl of E3 media. 90 µl of the test items (DMSO and positive control KRN633 included) previously diluted 100 times were dispensed into each well of the assay plate containing the embryos to get the final volume of 180 µl and the desired final concentration.
The microscope scanned the wells by columns and a bright field image and a fluorescent image (2.5×magnification) were acquired per well. Then, the image analysis was performed and the result file generated.
Statistical analysis and graphical representation of the data were performed using SSPS (Statistical Package for the Social Sciences) software and Prism (Graph Pad Software) for IC50 calculations (non linear regression, sigmoidal dose-response with variable slope). […] In the angiogenesis assay, for comparisons between two groups, two-tailed t-test was used assuming unequal variances. For comparisons between more than two groups one-way analysis of variance followed by Dunnett’s post-test was applied to compare each data point with vehicle control.

[3] = Dilution of compound in E3 medium; assay type: physicochemical

Row | Behaviour after dilution in E3 medium [3] | SMILES | Blood circulation (zebrafish embryos [1]) | ISVs appearance (zebrafish embryos [1]) | Efective concentration (minimum concentration that showed an effect) (zebrafish embryos [2]; given when IC50 could not be calculated) [µM] | Angiog. inhibition (zebrafish embryos [2]) | Anti-angiogenic phenotype (ISVs / DLAV) (zebrafish embryos [2]) | Inhibition of angiogenesis at maximum dose tested in medium (zebrafish embryos [2]; 10 µM in E3 medium)
1 | – | CCN(CC)CCCCNc1ncc2cc(-c3cc(OC)cc(OC)c3)c(NC(=O)NC(C)(C)C)nc2n1 [PD173074] | impaired blood circulation | thinner ISVs that were disrupted in some cases | 100 | Yes | moderate effect that did not increase with higher doses; also recorded: inhibit proper development of the DLAV; also recorded: thinner ISVs rather than incomplete vessel formation | –
2 | precipitated | CC(=O)O[C@H]1C(=O)[C@@]2(C)[C@H]([C@H](OC(=O)c3ccccc3)[C@]3(O)C[C@H](OC(=O)[C@H](O)[C@@H](NC(=O)c4ccccc4)c4ccccc4)C(C)=C1C3(C)C)[C@]1(OC(C)=O)CO[C@@H]1C[C@@H]2O [Paclitaxel] | – | – | – | Yes | the formation of ISVs was perturbed with defective or total absence of sprouting | not enough to induce inhibition of angiogenesis

From article PMC3352927, “Development and Validation of an Automated High-Throughput System for Zebrafish In Vivo Screenings” (PLoS ONE, 2012)
